Assay results: patent US8937077B2, “Bicyclic diamines as janus kinase inhibitors” (Merck Sharp & Dohme Corp., priority 2010, dated 2015)

biological target: T1, Jak1 (Homo sapiens, UniProt P23458); assay: Jak Biochemical HTRF Assay (Jak1); conditions: IC50 class, recombinant GST-tagged catalytic domain, read-out: Jak1 activity
T1 construct: using a recombinant purified GST-tagged catalytic domain for each enzyme; GST; purchased Invitrogen M4290
In short: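 Recombinant GST-tagged Jak1 catalytic domain was preincubated with compound and peptide substrate for 30 min at room temperature, and the reaction was then started with ATP and run 120 min. Buffer contained 2 mM DTT and 0.05% BSA. Read-out was HTRF (665/615 nm) with Eu-pY20 antibody and streptavidin-Dylight, and IC50 values came from 4-parameter fits of percent inhibition.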

T1 sequence (P23458 875-1153 limits assumed): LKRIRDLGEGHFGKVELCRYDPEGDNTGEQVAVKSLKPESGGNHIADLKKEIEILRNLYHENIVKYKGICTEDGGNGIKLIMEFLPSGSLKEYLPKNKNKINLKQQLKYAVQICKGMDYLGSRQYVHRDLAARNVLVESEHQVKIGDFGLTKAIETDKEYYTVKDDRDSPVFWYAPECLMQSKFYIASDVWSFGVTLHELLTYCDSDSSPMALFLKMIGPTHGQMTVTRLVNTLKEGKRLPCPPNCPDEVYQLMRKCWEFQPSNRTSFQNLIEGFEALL

First: O=C(OC(CCN1CCOCC1)c1ccccc1)N1CCC[C@@H]2C1CCN2c1ncnc2[nH]ccc12 (mixture of isomers) [Example 8-3, (1R and 1S)-3-(morpholin-4-yl)-1-phenylpropyl (3aR,7aR)-1-(7H-pyrrolo[2,3-d]pyrimidin-4-yl)octahydro-4-pyrrolo[3,2-b]pyridine-4-carboxylate]
Second: C[C@@H](OC(=O)N1CCCC2C1CCN2c1ncnc2[nH]ccc12)c1ccccc1 (stereo partly drawn) [Example 3-23, (1R)-1-phenylethyl 1-(7H-pyrrolo[2,3-d]pyrimidin-4-yl)octahydro-4H-pyrrolo[3,2-b]-pyridine-4-carboxylate]
The IC50 of the first is higher: 100 to 1000 nM for the first, 10 to 100 nM for the second. The second is the more potent here.

`O=C(OCC1CC1)N1CCC[C@@H]2[C@H]1CCN2c1ncnc2[nH]ccc12` [Example 3-31, cyclopropylmethyl (3aR,7aR)-1-(7H-pyrrolo[2,3-d]pyrimidin-4-yl)octahydro-4H-pyrrolo[3,2-b]pyridine-4-carboxylate] and `O=C(OCC1CCCCC1)N1CCC[C@@H]2[C@H]1CCN2c1ncnc2[nH]ccc12` [Example 3-46, cyclohexylmethyl (3aR,7aR)-1-(7H-pyrrolo[2,3-d]pyrimidin-4-yl)octahydro-4H-pyrrolo[3,2-b]pyridine-4-carboxylate] fall in the same range of IC50: 10 to 100 nM for the first, 10 to 100 nM for the second.

Compared with `Cn1ncc2cc(CC(=O)N3CCC[C@@H]4[C@H]3CCN4c3ncnc4[nH]ccc34)ccc21` [Example 29-59, 4-{(3aR,7aR)-4-[(1-methyl-1H-indazol-5-yl)acetyl]octahydro-1H-pyrrolo[3,2-b]pyridin-1-yl}-7H-pyrrolo[2,3-d]pyrimidine], `O=C(OCc1cccc(F)c1)N1CCCC2C1CCN2c1ncnc2[nH]ccc12` (stereo not drawn) [Example 3-9, 3-fluorobenzyl 1-(7H-pyrrolo[2,3-d]pyrimidin-4-yl)octahydro-4H-pyrrolo[3,2-b]-pyridine-4-carboxylate] is lower in IC50: 100 to 1000 nM for the first, 10 to 100 nM for the second.

`COC(=O)c1ccc(CCCN2CCC[C@@H]3[C@H]2CCN3c2ncnc3[nH]ccc23)cc1` [Example 13, methyl 4-{3-[(3aR,7aR)-1-(7H-pyrrolo[2,3-d]pyrimidin-4-yl)octahydro-4H-pyrrolo[3,2-b]pyridin-4-yl]propyl}benzoate] and `COC(=O)c1ccc(COC(=O)N2CCC[C@H]3[C@@H]2CCN3c2ncnc3[nH]ccc23)cc1` [Example 5, 4-(methoxycarbonyl)benzyl (3aS,7aS)-1-(7H-pyrrolo[2,3-d]pyrimidin-4-yl)octahydro-4H pyrrolo[3,2-b]pyridine-4-carboxylate] fall in the same range of IC50: 100 to 1000 nM for the first, 100 to 1000 nM for the second.

First: O=C(c1cn2ccc(Cl)cc2n1)N1CCC[C@@H]2[C@H]1CCN2c1ncnc2[nH]ccc12 [Example 29-60, 4-{(3aR,7aR)-4-[(7-chloroimidazo[1,2-a]pyridin-2-yl)carbonyl]octahydro-1H-pyrrolo[3,2-b]pyridin-1-yl}-7H-pyrrolo[2,3-d]pyrimidine]
Second: O=C(c1ccccc1)N1CCCC2C1CCN2c1ncnc2[nH]ccc12 (racemic) [Example 29-3, 4-[4-(phenylcarbonyl)octahydro-1H-pyrrolo[3,2-b]pyridin-1-yl]-7H-pyrrolo[2,3-d]-pyrimidine]
The IC50 of the first is higher: 100 to 1000 nM for the first, 10 to 100 nM for the second. The second is the more potent here.

`O=C(OCCCc1ccccc1)N1CCCC2C1CCN2c1ncnc2[nH]ccc12` (stereo not drawn) [Example 3-7, 3-phenylpropyl 1-(7H-pyrrolo[2,3-d]pyrimidin-4-yl)octahydro-4H-pyrrolo[3,2-b]-pyridine-4-carboxylate] and `O=C(OCc1ccccc1)N1CCCC2C1CCN2c1ncnc2[nH]ccc12` (racemic) [Example 1, (3aS,7aS and 3aR,7aR) benzyl 1-(7H-pyrrolo[2,3-d]pyrimidin-4-yl)octahydro-4H-pyrrolo[3,2-b]-pyridine-4-carboxylate] fall in the same range of IC50: 10 to 100 nM for the first, 10 to 100 nM for the second.

First: O=S(=O)(c1ccco1)N1CCC[C@@H]2[C@H]1CCN2c1ncnc2[nH]ccc12 [Example 32-4, 4-[(3aR,7aR)-4-(furan-2-ylsulfonyl)octahydro-1H-pyrrolo[3,2-b]pyridin-1-yl]-7H-pyrrolo[2,3-d]pyrimidine]
Second: O=S(=O)(CCc1ccccc1)N1CCC[C@@H]2[C@H]1CCN2c1ncnc2[nH]ccc12 [Example 32-2, 4-{(3aR,7aR)-4-[(2-phenylethyl)sulfonyl]octahydro-1H-pyrrolo[3,2-b]pyridin-1-yl}-7H-pyrrolo[2,3-d]pyrimidine]
The IC50 of the first is higher: 10 to 100 nM for the first, 1 to 10 nM for the second.

`O=C(OCc1cccnc1)N1CCCC2C1CCN2c1ncnc2[nH]ccc12` [Example 3-1, (3aS,7aS and 3aR,7aR) pyridin-3-ylmethyl 1-(7H-pyrrolo[2,3-d]pyrimidin-4-yl)octahydro-4H-pyrrolo[3,2-b]pyridine-4-carboxylate] and `O=C(OCCCc1cccnc1)N1CCC[C@@H]2[C@H]1CCN2c1ncnc2[nH]ccc12` [Example 3-48, 3-pyridin-3-ylpropyl (3 aR,7 aR)-1-(7H-pyrrolo[2,3-d]pyrimidin-4-yl)octahydro-4H-pyrrolo[3,2-b]pyridine-4-carboxylate] fall in the same range of IC50: 10 to 100 nM for the first, 10 to 100 nM for the second.

`CN(C)CCNC(=O)c1ccc(COC(=O)N2CCC[C@@H]3[C@H]2CCN3c2ncnc3[nH]ccc23)cc1` [Example 7-4, 4-{[2-(dimethylamino)ethyl]carbamoyl}benzyl (3aR,7aR)-1-(7H-pyrrolo[2,3-d]pyrimidin-4-yl)octahydro-4H-pyrrolo[3,2-b]pyridine-4-carboxylate] and `CN(C)C(=O)c1ccc(COC(=O)N2CCC[C@@H]3[C@H]2CCN3c2ncnc3[nH]ccc23)cc1` [Example 7-1, 4-(dimethylcarbamoyl)benzyl (3aR,7aR)-1-(7H-pyrrolo[2,3-d]pyrimidin-4-yl)octahydro-4H-pyrrolo[3,2-b]pyrindine-4-carboxylate] fall in the same range of IC50: 100 to 1000 nM for the first, 100 to 1000 nM for the second.

First: CN(C)CCOC(=O)N1CCC[C@@H]2[C@H]1CCN2c1ncnc2[nH]ccc12 (single isomer, unassigned) [Example 3-38]
Second: CCCCC(=O)N1CCCC2C1CCN2c1ncnc2[nH]ccc12 (racemic) [Example 29-2, 4-(4-pentanoyloctahydro-1H-pyrrolo[3,2-b]pyridin-1-yl)-7H-pyrrolo[2,3-d]pyrimidine]
The IC50 of the first is higher: 100 to 1000 nM for the first, 10 to 100 nM for the second. The second is the more potent here.

Compared with `O=C(OCc1ccccc1F)N1CCC[C@@H]2[C@H]1CCN2c1ncnc2[nH]ccc12` [Example 3-33, 2-fluorobenzyl (3aR,7aR)-1-(7H-pyrrolo[2,3-d]pyrimidin-4-yl)octahydro-4H-pyrrolo[3,2-b]pyridine-4-carboxylate], `O=C(OCc1ccc(Cl)cc1)N1CCCC2C1CCN2c1ncnc2[nH]ccc12` (stereo not drawn) [Example 3-6, 4-chlorobenzyl 1-(7H-pyrrolo[2,3-d]pyrimidin-4-yl)octahydro-4H-pyrrolo[3,2-b]-pyridine-4-carboxylate] is higher in IC50: 1 to 10 nM for the first, 10 to 100 nM for the second. The first is the more potent here.

First: COc1cccc(COC(=O)N2CCCC3C2CCN3c2ncnc3[nH]ccc23)c1 (stereo not drawn) [Example 3-4, 3-methoxybenzyl 1-(7H-pyrrolo[2,3-d]pyrimidin-4-yl)octahydro-4H-pyrrolo[3,2-b]-pyridine-4-carboxylate]
Second: CNC(=O)c1ccc(COC(=O)N2CCC[C@@H]3[C@H]2CCN3c2ncnc3[nH]ccc23)cc1 [Example 7-3, 4-(methylcarbamoyl)benzyl (3aR,7aR)-1-(7H-pyrrolo[2,3-d]pyrimidin-4-yl)octahydro-4H-pyrrolo[3,2-b]pyridine-4-carboxylate]
The IC50 of the first is lower: 10 to 100 nM for the first, 100 to 1000 nM for the second.

First: CN(C)C(=O)N1CCC(C(=O)N2CCC[C@@H]3[C@H]2CCN3c2ncnc3[nH]ccc23)CC1 [Example 29-35, N,N-dimethyl-4-{[(3aR,7aR)-1-(7H-pyrrolo[2,3-d]pyrimidin-4-yl)octahydro-4H-pyrrolo[3,2-b]pyridin-4-yl]carbonyl}piperidine-1-carboxamide]
Second: CN1CCN(c2ccc(C(=O)N3CCCC4C3CCN4c3ncnc4[nH]ccc34)cc2)CC1 (stereo not drawn) [Example 29-6, 4-(4-{[4-(4-methylpiperazin-1-yl)phenyl]carbonyl}octahydro-1H-pyrrolo[3,2-b]pyridin-1-yl)-7H-pyrrolo[2,3-d]pyrimidine]
The IC50 of the first is lower: 10 to 100 nM for the first, 100 to 1000 nM for the second. The first is the more potent here.

`O=C(c1cccc2cnccc12)N1CCC[C@@H]2[C@H]1CCN2c1ncnc2[nH]ccc12` [Example 29-37, 5-{[(3aR,7aR)-1-(7H-pyrrolo[2,3-d]pyrimidin-4-yl)octahydro-4H-pyrrolo[3,2-b]pyridin-4-yl]carbonyl}isoquinoline] and `O=C(c1cccc2ccccc12)N1CCC[C@@H]2[C@H]1CCN2c1ncnc2[nH]ccc12` [Example 29-20, 4-[(3aR,7aR)-4-(naphthalen-1-ylcarbonyl)octahydro-1H-pyrrolo[3,2-b]pyridin-1-yl]-7H-pyrrolo[2,3-d]pyrimidine] fall in the same range of IC50: 10 to 100 nM for the first, 10 to 100 nM for the second.

`O=C(OCCc1ccccn1)N1CCC[C@@H]2[C@H]1CCN2c1ncnc2[nH]ccc12` [Example 3-37, 2-pyridin-2-ylethyl (3aR,7 aR)-1-(7H-pyrrolo[2,3-d]pyrimidin-4-yl)octahydro-4H-pyrrolo[3,2-b]pyridine-4-carboxylate] and `O=C(OCCc1ccc2c(c1)CCO2)N1CCC[C@@H]2[C@H]1CCN2c1ncnc2[nH]ccc12` [Example 3-28, 2-(2,3-dihydro-1-benzofuran-5-yl)ethyl (3aR,7aR)-1-(7H-pyrrolo[2,3-d]pyrimidin-4-yl)octahydro-4H-pyrrolo[3,2-b]pyridine-4-carboxylate] fall in the same range of IC50: 10 to 100 nM for the first, 10 to 100 nM for the second.

`COC(=O)c1ccc(CNC(=O)N2CCC[C@@H]3[C@H]2CCN3c2ncnc3[nH]ccc23)cc1` [Example 23, methyl 4-[({[(3aR,7aR)-1-(7H-pyrrolo[2,3-d]pyrimidin-4-yl)octahydro-4H-pyrrolo[3,2-b]-pyridine-4-yl]carbonyl}amino)methyl]benzoate] and `N#Cc1ccc(C(=O)N2CCC[C@@H]3[C@H]2CCN3c2ncnc3[nH]ccc23)cc1` [Example 29-29, 4-{[(3aR,7aR)-1-(7H-pyrrolo[2,3-d]pyrimidin-4-yl)octahydro-4H-pyrrolo[3,2-b]pyridin-4-yl]carbonyl}benzonitrile] fall in the same range of IC50: 10 to 100 nM for the first, 10 to 100 nM for the second.

same assay, conditions: recombinant GST-tagged catalytic domain, 31.8 μM ATP, read-out: Representative IC50 values

Point of comparison: `O=S(=O)(c1ccco1)N1CCC[C@@H]2[C@H]1CCN2c1ncnc2[nH]ccc12` [Example 32-4, 4-[(3aR,7aR)-4-(furan-2-ylsulfonyl)octahydro-1H-pyrrolo[3,2-b]pyridin-1-yl]-7H-pyrrolo[2,3-d]pyrimidine], IC50 14 nM. Against it:
- COC(=O)c1ccc(CCCN2CCC[C@@H]3[C@H]2CCN3c2ncnc3[nH]ccc23)cc1 [Example 13, methyl 4-{3-[(3aR,7aR)-1-(7H-pyrrolo[2,3-d]pyrimidin-4-yl)octahydro-4H-pyrrolo[3,2-b]pyridin-4-yl]propyl}benzoate] — 12-fold higher, 169 nM
- COC(=O)c1ccc(CNC(=O)N2CCC[C@@H]3[C@H]2CCN3c2ncnc3[nH]ccc23)cc1 [Example 23, methyl 4-[({[(3aR,7aR)-1-(7H-pyrrolo[2,3-d]pyrimidin-4-yl)octahydro-4H-pyrrolo[3,2-b]-pyridine-4-yl]carbonyl}amino)methyl]benzoate] — 2.8-fold higher, 39 nM
- O=S(=O)(CCc1ccccc1)N1CCC[C@@H]2[C@H]1CCN2c1ncnc2[nH]ccc12 [Example 32-2, 4-{(3aR,7aR)-4-[(2-phenylethyl)sulfonyl]octahydro-1H-pyrrolo[3,2-b]pyridin-1-yl}-7H-pyrrolo[2,3-d]pyrimidine] — 2-fold lower, 7 nM
